These results are taken from ChEMBL document CHEMBL5321285 (J Med Chem, 2023).

Calls of active or inactive are those of the source. The rule behind the calls is not given here.

Data set [1] has as its target T1, Sigma non-opioid intracellular receptor 1 (Homo sapiens, UniProt Q99720). Put plainly: Displacement of [3H]-(+)-pentazocine from human sigma1 receptor transfected in HEK293 cell membranes assessed as inhibition constant incubated for 120 mins in presence of haloperidol by microbeta scintillation counter analysis. Further details: species or system Cell membrane. A general note: In a radioligand displacement assay an active substance lowers the binding of a labelled ligand.

Data set [2] is filed under the species Homo sapiens. Put plainly: Selectivity ratio of Ki for displacement of [3H]-(+)-pentazocine from human sigma1 receptor transfected in HEK293 cell membranes assessed as inhibition constant to Ki for displacement of [3H]-1,3-di-O-tolylguanidine from human sigma 2 receptor/TMEM97 transfected in sigma 1 receptor knockout HEK293 cell membranes assessed as inhibition constant.

Data set [3] has as its target T2, Sigma intracellular receptor 2 (Homo sapiens, UniProt Q5BJF2). Put plainly: Displacement of [3H]-1,3-di-O-tolylguanidine from human sigma 2 receptor/TMEM97 transfected in sigma 1 receptor knockout HEK293 cell membranes assessed as inhibition constant measured after 120 mins by microbeta scintillation counting analysis. The arrangement: species or system Cell membrane.

The nature of data set [4]: Metabolic stability in human liver microsome assessed as parent compound remaining at 1 uM measured after 1 hr in presence of NADPH regenerating system by UPLC-MS/MS analysis. It counts as ADME. The note with it: liver microsomes, read-out: Stability.
Data set [5] can be described thus: Metabolic stability in rat liver microsome assessed as parent compound remaining at 1 uM measured after 1 hr in presence of NADPH regenerating system by UPLC-MS/MS analysis. It counts as ADME. The following applies: liver microsomes, read-out: Stability. In general terms: Microsomes from liver hold many membrane-bound enzymes, among them those of drug oxidation.

Data set [6] is described as follows: Metabolic stability in mouse liver microsome assessed as parent compound remaining at 1 uM measured after 1 hr in presence of NADPH regenerating system by UPLC-MS/MS analysis. The data set is classed as ADME. The following applies: liver microsomes, read-out: Stability.
Data set [7] deals with Voltage-gated inwardly rectifying potassium channel KCNH2 (Homo sapiens, UniProt Q12809). The data set is described as follows: Inhibition of hERG expressed in CHO cells at holding potential of -80 mV measured for 15 seconds by whole cell patch clamp assay. It counts as toxicity, cell-based. For orientation: The hERG channel carries a current that helps repolarise heart muscle cells.
Sequence of Voltage-gated inwardly rectifying potassium channel KCNH2 (Q12809 whole entry): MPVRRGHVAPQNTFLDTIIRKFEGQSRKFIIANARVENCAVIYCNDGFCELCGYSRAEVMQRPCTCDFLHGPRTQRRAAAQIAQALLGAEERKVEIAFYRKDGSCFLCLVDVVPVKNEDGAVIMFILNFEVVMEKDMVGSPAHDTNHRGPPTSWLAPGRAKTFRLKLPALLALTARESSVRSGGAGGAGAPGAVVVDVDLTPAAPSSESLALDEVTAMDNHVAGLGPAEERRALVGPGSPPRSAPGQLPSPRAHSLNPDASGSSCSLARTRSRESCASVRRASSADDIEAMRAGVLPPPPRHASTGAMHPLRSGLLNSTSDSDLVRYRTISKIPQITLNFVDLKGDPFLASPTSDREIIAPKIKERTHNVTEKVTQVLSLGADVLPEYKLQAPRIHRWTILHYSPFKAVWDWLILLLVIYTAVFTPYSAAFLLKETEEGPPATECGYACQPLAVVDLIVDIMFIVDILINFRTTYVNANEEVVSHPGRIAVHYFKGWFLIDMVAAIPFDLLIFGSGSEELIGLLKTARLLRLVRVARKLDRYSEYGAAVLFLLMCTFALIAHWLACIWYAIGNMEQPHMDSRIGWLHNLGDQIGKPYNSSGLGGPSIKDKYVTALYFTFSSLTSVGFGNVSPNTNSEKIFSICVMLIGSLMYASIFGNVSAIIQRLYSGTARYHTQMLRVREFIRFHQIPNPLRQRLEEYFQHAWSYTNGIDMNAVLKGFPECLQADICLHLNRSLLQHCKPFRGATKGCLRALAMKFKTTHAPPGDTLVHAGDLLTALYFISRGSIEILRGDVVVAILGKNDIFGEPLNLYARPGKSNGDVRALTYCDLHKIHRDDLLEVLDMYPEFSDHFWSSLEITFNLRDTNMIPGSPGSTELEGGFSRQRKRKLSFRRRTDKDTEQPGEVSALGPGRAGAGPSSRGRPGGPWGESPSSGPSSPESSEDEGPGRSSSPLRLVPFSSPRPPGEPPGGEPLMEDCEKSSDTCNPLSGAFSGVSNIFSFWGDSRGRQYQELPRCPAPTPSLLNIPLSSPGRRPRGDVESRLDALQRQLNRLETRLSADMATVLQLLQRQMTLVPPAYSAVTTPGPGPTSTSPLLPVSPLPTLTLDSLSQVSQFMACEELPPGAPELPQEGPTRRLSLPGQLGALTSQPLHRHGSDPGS

In data set [8] the target is T1, Sigma non-opioid intracellular receptor 1. Put plainly: Binding affinity to sigma1 receptor (unknown origin) assessed as inhibition constant.
The target in data set [9] is T2, Sigma intracellular receptor 2. The data set is described as follows: Binding affinity to sigma2 receptor (unknown origin) assessed as inhibition constant.
The test system of data set [10] is Neuron. Put plainly: Neuroprotective activity against MPP+ induced rat neurons at 10 uM pretreated with compond for 1 hr followed by MPP+ addition and measured after 48 hrs. It counts as functional, cell-based. The note with it: time 49.0 hrs.
Data set [11] is described as follows: Binding affinity to sigma1 receptor (unknown origin) assessed as inhibition constant.
In data set [12] the target is Sigma non-opioid intracellular receptor 1 (Rattus norvegicus, UniProt Q9R0C9). Put plainly: Displacement of [3H](+)-pentazocine from rat liver membranes sigma 1 receptor assessed as inhibition constant incubated for 120 mins. The data set is classed as cell membranes, Membrane.
Sequence of Sigma non-opioid intracellular receptor 1 (Rattus norvegicus, UniProt Q9R0C9) (Q9R0C9 whole entry): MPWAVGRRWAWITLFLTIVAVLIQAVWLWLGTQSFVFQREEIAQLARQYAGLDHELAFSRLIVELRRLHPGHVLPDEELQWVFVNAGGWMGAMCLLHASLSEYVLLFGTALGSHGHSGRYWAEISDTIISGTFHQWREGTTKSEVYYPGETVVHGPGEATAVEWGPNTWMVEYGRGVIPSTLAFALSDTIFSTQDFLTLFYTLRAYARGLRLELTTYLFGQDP
Data set [13] concerns the target T3, Sigma intracellular receptor 2 (Rattus norvegicus, UniProt Q5U3Y7).
T3 sequence (Q5U3Y7 whole entry): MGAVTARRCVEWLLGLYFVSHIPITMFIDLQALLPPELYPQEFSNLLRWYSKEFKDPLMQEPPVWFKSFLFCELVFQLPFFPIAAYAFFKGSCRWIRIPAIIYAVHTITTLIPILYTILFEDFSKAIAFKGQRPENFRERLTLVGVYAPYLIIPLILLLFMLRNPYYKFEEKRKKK
Put plainly: Displacement of [3H]di-o-tolylguanidine from rat liver membrane sigma 2 assessed as inhibition constant incubated for 120 mins. It counts as cell membranes.

The target in data set [14] is T3, Sigma intracellular receptor 2. The data set is described as follows: Displacement of [3H]di-o-tolylguanidine from rat liver membrane sigma 2 receptor assessed as inhibition constant in presence of haloperidol. The data set is classed as cell membranes.
The target of data set [15] is Sigma non-opioid intracellular receptor 1 (Cavia porcellus, UniProt Q60492).
Sequence of Sigma non-opioid intracellular receptor 1 (Cavia porcellus, UniProt Q60492) (Q60492 whole entry): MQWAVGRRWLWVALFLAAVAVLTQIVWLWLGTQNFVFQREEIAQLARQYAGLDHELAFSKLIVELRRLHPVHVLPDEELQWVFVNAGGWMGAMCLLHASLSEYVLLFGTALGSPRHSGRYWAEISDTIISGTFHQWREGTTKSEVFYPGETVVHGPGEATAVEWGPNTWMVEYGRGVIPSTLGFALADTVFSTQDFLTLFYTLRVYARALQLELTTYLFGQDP
Description: Displacement of [3H](+)-pentazocine from sigma 1 receptor in guinea pig brain membranes assessed as inhibition constant incubated for 120 mins in presence of haloperidol

T1 sequence (Q99720 whole entry): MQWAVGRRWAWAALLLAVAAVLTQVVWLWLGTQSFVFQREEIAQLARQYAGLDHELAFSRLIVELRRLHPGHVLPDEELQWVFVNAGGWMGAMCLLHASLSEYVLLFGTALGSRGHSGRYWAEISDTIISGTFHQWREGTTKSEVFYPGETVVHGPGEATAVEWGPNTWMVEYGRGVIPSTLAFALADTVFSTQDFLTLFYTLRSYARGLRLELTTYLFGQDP
T2 sequence (Q5BJF2 whole entry): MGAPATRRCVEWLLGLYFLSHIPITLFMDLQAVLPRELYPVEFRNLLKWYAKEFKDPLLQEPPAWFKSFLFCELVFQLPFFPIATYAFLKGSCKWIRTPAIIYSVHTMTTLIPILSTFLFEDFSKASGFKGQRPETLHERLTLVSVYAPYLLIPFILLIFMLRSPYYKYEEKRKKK

As usually defined, the Ki is a dissociation constant, usually derived from enzyme kinetics or from competition with a known ligand. As a reminder, the IC50 is the concentration needed to halve the response being measured. A high value points to lower potency. Regarding `CCc1ncc(-c2cc(C)no2)c(C2CCN(CC(=O)N3CCCCC3)CC2)n1`, the inhibitory constant (Ki) in data set [1] was 882 nM; in data set [3] it was 4 nM. Also, the Ratio Ki in data set [2] is 220. The remaining at 1 h, 1 µM in [4] is 58%; in data set [5], 101%; in data set [6], 59%. The molecule further came in with an IC50 in data set [7] of 8700 nM.
Regarding `CCc1ncc(-c2ccncc2)c(C2CCN(CC(=O)N3CCOCC3)CC2)n1`, the inhibitory constant (Ki) turned out to be 807 nM in data set [1] and 727 nM in data set [3]. For the same molecule, the Ratio Ki in data set [2] is 1.1.
Regarding `OCCCN1CCCC2CC1c1cc(-c3ccc(C(F)(F)F)cc3)ccc12` (stereo not given), the inhibition constant (Ki) came to 1280 nM in [8] and 46 nM in data set [9].
In the case of `CCc1ncc(-c2cc(C)no2)c(C2CCN(CC(=O)N3CCC4(CCOC4)CC3)CC2)n1`, the Ki in data set [1] is 2150 nM; in data set [3], 1 nM. Besides, the Ratio Ki in data set [2] was 2150. For the same molecule, the remaining at 1 h, 1 µM was found to be 82% in data set [4], 92% in [5] and 88% in data set [6]. Also, the IC50 in [7] was over 10000 nM.
With `CCc1ncc(-c2cc(C)no2)c([C@H]2CCCN(CC(=O)N3CCOCC3)C2)n1`, the values for the Ki in data set [1] and in data set [3] were over 10000 nM and 788 nM, respectively.
Take `Cc1cc(-c2cnc(C3CC3)nc2C2CCN(CC(=O)N3CCOCC3)CC2)on1`: the Ki in data set [1] came to 789 nM; in [3] it was 1 nM. Further, the Ratio Ki in data set [2] is 789. Also, the remaining at 1 h, 1 µM in data set [4] was found to be 86%; in data set [5], 84%; in data set [6], 97%. Further, in [7], half-maximal inhibition (IC50) required 4200 nM.
`CCc1ncc(-c2cc(C)no2)c([C@@H]2CCCN(CC(=O)N3CCOCC3)C2)n1`: the Ki in [1] was over 10000 nM; in [3] it was 164 nM.
In the case of `CCc1ncc(-c2ccccn2)c(C2CCN(CC(=O)N3CCOCC3)CC2)n1`, the Ki is over 1000 nM in data set [1] and 319 nM in data set [3]. For the same molecule, the Ratio Ki in data set [2] is over 3.
As to `CC(C)(C)Oc1cc(CCC(C)(C)N2Cc3ccc(S(C)(=O)=O)cc3C2)ccc1O`, the inhibition constant Ki in data set [9] is 8 nM; in [1], 23 nM; in [3], 5 nM; in data set [11], 63 nM. Further, in [2], the Ratio Ki is 4.6. The remaining at 1 h, 1 µM in data set [4] came out at 60%; in data set [5], 37%; in [6], 62%. Further, the outcome in [10] was Active.
Regarding `CCc1ncc(-c2cc(C)no2)c(C2CCN(CC(=O)N3CCOCC3)C2)n1` (stereo not given), the inhibition constant (Ki) in [1] and in [3] was over 1000 nM throughout.
`CC(=O)c1ccc2c(c1)oc(=O)n2CCCCN1CCN(c2ccc(F)cc2N)CC1`: the values for the inhibitory constant (Ki) in [12] and in data set [13] were 87 nM and 3.5 nM, respectively.
As for `CCc1ncc(-c2cccc(C)n2)c(C2CCN(CC(=O)N3CCOCC3)CC2)n1`, the Ki in [1] was over 1000 nM; in data set [3] it was 116 nM. For the same molecule, in data set [2], the Ratio Ki is over 8.6. The remaining at 1 h, 1 µM in [4] worked out at 83%; in data set [5], 96%; in data set [6], 76%.
In the case of `Cc1cc(-c2cnc(C(C)C)nc2C2CCN(CC(=O)N3CCOCC3)CC2)on1`, the Ki in data set [1] is over 1000 nM; in data set [3], 47 nM. The Ratio Ki in [2] was over 21. Moreover, the remaining at 1 h, 1 µM in data set [4] was found to be 80%; in [5], 81%; in data set [6], 65%. In addition, half-maximal inhibition in data set [7] (IC50) required 3600 nM.
On to `Cc1cc(-c2cnc(C)nc2C2CCN(C(=O)CN3CCOCC3)CC2)on1`, for which the Ki in data set [1] and in data set [3] was over 1000 nM in each case.
As to `Cc1cc(-c2cnc(C(F)(F)F)nc2C2CCN(CC(=O)N3CCOCC3)CC2)on1`, the inhibition constant (Ki) in data set [1] is over 1000 nM; in data set [3] it was 6 nM. Besides, the Ratio Ki in [2] is over 166. Further, the figures for the remaining at 1 h, 1 µM in data set [4], in data set [5] and in data set [6] were 78%, 71% and 77%, respectively. Besides, the 50% inhibitory concentration (IC50) in data set [7] was over 10000 nM.
As for `COc1cc2c(cc1OC)CN(CCCCn1c(=O)n(C)c3ccccc31)CC2`, the Ki is 560 nM in data set [8] and 0.43 nM in data set [9].
As to `CCCc1ncc(-c2cc(C)no2)c(C2CCN(CC(=O)N3CCOCC3)CC2)n1`, the Ki in [1] was over 1000 nM; in data set [3], 61 nM. In addition, the Ratio Ki in data set [2] was over 16. In addition, the remaining at 1 h, 1 µM in data set [4] was found to be 89%; in data set [5], 90%; in data set [6], 89%. In data set [7], this molecule registered a half-maximal inhibitory concentration (IC50) of 5400 nM.
`CCc1ncc(-c2cc(C)no2)c(C2CCN(CCN3CCOCC3)CC2)n1`: the inhibition constant Ki in data set [1] was 150 nM; in [3], 38 nM. For the same molecule, the remaining at 1 h, 1 µM in data set [4] amounted to 75%; in [5], 67%; in [6], 56%. The molecule also came in with an IC50 in data set [7] of over 10000 nM.
As to `CCc1ncc(-c2cc(C)no2)c(C2CCN(CCC(=O)N3CCOCC3)CC2)n1`, the Ki was over 1000 nM in data set [1] and 62 nM in data set [3]. Also, the remaining at 1 h, 1 µM in [4] turned out to be 86%; in data set [5] it was 95%; in data set [6] it was 94%. Further, the 50% inhibitory concentration (IC50) in [7] turned out to be 4500 nM.
For `CN1CC[C@]2(c3cccc(O)c3)CC(=O)/C(=C/c3ccc(Cl)c(Cl)c3)[C@H]1C2`, the values for the Ki in data set [14] and in data set [15] were 13.4 nM and 7440 nM, respectively.
Consider `Cc1cc(-c2cnc(C)nc2C2CCN(CC(=O)N3CCOCC3)CC2)on1`, for which the Ki in [1] came out at 8270 nM; in data set [3], 59 nM. Also, the Ratio Ki in [2] was found to be 140. The remaining at 1 h, 1 µM stood at 104% in [4], 100% in data set [5] and 87% in data set [6]. Also, in data set [7], the IC50 is over 10000 nM.
With `CCn1cc(-c2cc(C)no2)c(C2CCN(CC(=O)N3CCOCC3)CC2)n1`, the Ki was over 1000 nM in data set [1] and 496 nM in data set [3].
With `CCc1ncc(-c2cc(C)no2)c(C2CCCN(CC(=O)N3CCOCC3)CC2)n1` (stereo not given), the Ki in data set [1] worked out at 237 nM; in data set [3] it was 131 nM.
Take `CCc1ncc(-c2cc(C)no2)c(C2CCN(CC(=O)N3CCCN(C)CC3)CC2)n1`: the figures for the inhibition constant (Ki) in [1] and in [3] were over 1000 nM and 98 nM, respectively. The Ratio Ki in [2] was over 10. The remaining at 1 h, 1 µM came to 85% in data set [4], 97% in data set [5] and 83% in data set [6]. For the same molecule, in data set [7], the IC50 was over 10000 nM.
In the case of `O=C(CN1CCC(CN2Cc3ccccc3C2=O)CC1)c1ccc(F)cc1` [ROLUPERIDONE], in [8], the inhibitory constant (Ki) is at least 1000 nM.
Regarding `CCc1ncc(-c2nccn2C)c(C2CCN(CC(=O)N3CCOCC3)CC2)n1`, the values for the Ki in data set [1] and in data set [3] were over 10000 nM and 951 nM, respectively. For the same molecule, the Ratio Ki in [2] was over 10.
With `CCn1ncc(-c2cc(C)no2)c1C1CCN(CC(=O)N2CCOCC2)CC1`, the Ki in data set [1] and in [3] was over 1000 nM throughout.
Take `Cc1cc(-c2cncnc2C2CCN(CC(=O)N3CCOCC3)CC2)on1`: the Ki in data set [1] is over 1000 nM; in data set [3], 457 nM. Further, the Ratio Ki in data set [2] is over 2.
As for `CCc1ncc(-c2cc(C)no2)c(C2CCN(CC(=O)N3CCCOCC3)CC2)n1`, the Ki in [1] was over 1000 nM; in [3], 5 nM. The Ratio Ki in data set [2] is over 200. Further, the remaining at 1 h, 1 µM in [4] came out at 77%; in data set [5], 84%; in data set [6] it was 69%. Moreover, the IC50 in data set [7] was over 10000 nM.
